Experiments:
[1] = system: HIV-infected normal human blood lymphocytes (PBLs); assay: HIV test in infected human blood lymphocytes (PBLs), syncytia formation, method of Pauwels et al.; assay type: cell-based; conditions: concentration at which 50% (about 10 syncytia) of the virus-induced syncytia were suppressed, day 3 to 6 after infection
Procedure: The HIV test was carried out with slight modifications by the method of Pauwels et al. (Journal of Virological Methods 20 (1988) 309-321).
Normal human blood lymphocytes (PBLs) were concentrated by means of Ficoll-Hypaque and stimulated with phytohaemagglutinin (90 μg/ml) and interleukin 2 (40 U/ml) in RPMI 1640 and 20% foetal calf serum. For infection with the infectious HIV, PBLs were pelleted and the cell pellet was then suspended in 1 ml of HIV virus adsorption solution and incubated at 37° C. for 1 hour.
The virus adsorption solution was centrifuged and the infected cell pellet was taken up in growth medium such that a concentration of 1×10^5 cells per ml was established. The cells infected in this way were pipetted into the wells of 96-well microtitre plates at a concentration of 1×10^4 cells/well. […]
The test batches were incubated at 37° C. until, in the untreated virus control, the syncytia formation typical for HIV occurred (between day 3 and 6 after infection), which was then evaluated microscopically.
The IC-50 values were determined as the concentration of the treated and infected cells at which 50% (about 10 syncytia) of the virus-induced syncytia were suppressed by treatment with the compound according to the invention.

[2] = target: T1, HIV protease (Human immunodeficiency virus type 1 group M subtype B, UniProt P04585); assay: HIV-specific protease enzyme test (RP-HPLC analysis of synthetic peptide cleavage); assay type: biochemical; conditions: purified HIV protease, synthetic peptide imitating a Gag precursor cleavage site; concentration causing 50% inhibition of protease activity
T1 construct: purified HIV protease was incubated with synthetic peptide
Procedure: This is confirmed using an HIV-specific protease enzyme test.
The results for the examples listed below were determined by the HIV test system described in the following literature reports [cf. Hansen, J., Billich, S., Schulze, T., Sukrow, S. and Molling, K. (1988), EMBO Journal, Vol. 7, No. 6, pages 1785-1791]: purified HIV protease was incubated with synthetic peptide which imitated a cleavage site in the Gag precursor protein and represented an in vivo cleavage site of the HIV protease. The resulting cleavage products of the synthetic peptide were analysed by means of reverse phase high performance liquid chromatography (RP-HPLC). The IC50 values given relate to the substance concentration which causes a 50% inhibition of protease activity under the abovementioned test conditions.

Row | SMILES | IC50 [1] | IC50 [2]
1 | CCOP(=O)(OCC)C1CCCN1C(=O)C[C@H](O)[C@H](CC1CCCCC1)NC(=O)[C@H](Cc1ccccc1)NC(=O)Nc1cccc2ccccc12 (single isomer, unassigned) [Example 16, Diethyl 1-{(3S,4S)-5-cyclohexyl-3-hydroxy-4-(1-napthylaminocarbonyl)phenylalaninyl]aminopentanoyl}-(2R or S)-2-(pyrrolidinyl)phosphonate] | 4.3 µM | –
2 | CCOP(=O)(OCC)C1CCCN1C(=O)C[C@H](O)[C@H](CC1CCCCC1)NC(=O)[C@@H](NC(=O)[C@H](Cc1cccc2ccccc12)CS(=O)(=O)C(C)(C)C)C(C)C (stereo partly drawn) [Example 14, Diethyl 1-{(3S,4S)-4-[(2S)-3-(tert-butylsulphonyl)2-(1-naphthylmethyl)propanoyl]-valinylamino-5-cyclohexyl-3-hydroxypentanoyl}-(2RorS)-2-(pyrrolidinyl)phosphonate] | – | 0.5 µM
3 | CCOP(=O)(OCC)C1CCCN1C(=O)C[C@@H](O)[C@H](CC1CCCCC1)NC(=O)OC(C)(C)C (stereo partly drawn) [Example 28, Diethyl 1-{(3R,4S)-4-[(tert-butoxycarbonyl)amino]-5-cyclohexyl-3-hydroxypentanonyl]-(2R,S)-2-(pyrrolidinyl)phosphonate] | – | 10 µM

From patent US5147865A, “Phosphonopyrrolidine- and piperidine-containing pseudopeptides of the statin type, a process for their preparation and their use as medicaments against retroviruses” (Bayer Aktiengesellschaft, priority 1990, dated 1992)
